Assay results published in ChEMBL document CHEMBL3991601, “The target landscape of clinical kinase drugs” (Science, 2017).
Active and inactive are the calls of the source.

Assays:
[1] = biological target: T1, Mitogen-activated protein kinase kinase kinase 6 (Homo sapiens, UniProt O95382)
T1 sequence (O95382 whole entry): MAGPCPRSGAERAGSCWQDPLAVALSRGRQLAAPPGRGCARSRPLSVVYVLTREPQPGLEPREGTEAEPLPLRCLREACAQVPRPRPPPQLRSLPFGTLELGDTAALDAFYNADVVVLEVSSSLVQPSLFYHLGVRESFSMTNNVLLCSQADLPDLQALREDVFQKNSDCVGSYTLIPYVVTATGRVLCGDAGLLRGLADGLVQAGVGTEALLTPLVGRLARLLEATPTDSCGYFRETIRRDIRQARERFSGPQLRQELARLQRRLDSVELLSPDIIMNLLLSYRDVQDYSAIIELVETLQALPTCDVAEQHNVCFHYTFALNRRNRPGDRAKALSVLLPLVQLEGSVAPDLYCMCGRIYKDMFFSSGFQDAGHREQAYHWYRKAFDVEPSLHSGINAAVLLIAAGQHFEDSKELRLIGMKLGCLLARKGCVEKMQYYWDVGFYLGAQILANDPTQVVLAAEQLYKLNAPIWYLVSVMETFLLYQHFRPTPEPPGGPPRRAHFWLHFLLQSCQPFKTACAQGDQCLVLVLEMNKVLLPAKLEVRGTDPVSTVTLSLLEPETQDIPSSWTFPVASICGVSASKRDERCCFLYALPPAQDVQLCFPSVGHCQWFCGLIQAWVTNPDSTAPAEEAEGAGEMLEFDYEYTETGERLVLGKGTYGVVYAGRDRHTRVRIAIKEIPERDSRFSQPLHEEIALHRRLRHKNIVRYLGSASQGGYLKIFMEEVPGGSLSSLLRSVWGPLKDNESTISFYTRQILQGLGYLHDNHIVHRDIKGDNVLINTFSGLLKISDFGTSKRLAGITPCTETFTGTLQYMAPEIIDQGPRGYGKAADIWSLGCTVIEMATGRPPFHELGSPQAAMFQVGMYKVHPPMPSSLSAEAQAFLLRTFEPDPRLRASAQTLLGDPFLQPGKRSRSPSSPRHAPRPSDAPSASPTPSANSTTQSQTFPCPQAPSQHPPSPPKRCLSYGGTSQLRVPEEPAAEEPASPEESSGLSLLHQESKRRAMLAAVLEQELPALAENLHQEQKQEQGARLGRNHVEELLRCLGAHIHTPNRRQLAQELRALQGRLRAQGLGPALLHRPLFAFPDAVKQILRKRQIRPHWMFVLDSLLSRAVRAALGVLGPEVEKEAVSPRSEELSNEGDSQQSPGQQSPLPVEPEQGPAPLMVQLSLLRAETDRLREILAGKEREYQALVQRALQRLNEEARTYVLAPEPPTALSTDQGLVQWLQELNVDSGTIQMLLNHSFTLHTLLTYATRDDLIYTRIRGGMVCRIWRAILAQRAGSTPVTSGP

[2] = biological target: Serine/threonine-protein kinase/endoribonuclease IRE2 (Homo sapiens, UniProt Q76MJ5)
[3] = biological target: Casein kinase I isoform alpha (Homo sapiens, UniProt P48729)
[4] = biological target: Deoxycytidine kinase (Homo sapiens, UniProt P27707)
[5] = biological target: T2, MAP/microtubule affinity-regulating kinase 4 (Homo sapiens, UniProt Q96L34)
T2 sequence (Q96L34 whole entry): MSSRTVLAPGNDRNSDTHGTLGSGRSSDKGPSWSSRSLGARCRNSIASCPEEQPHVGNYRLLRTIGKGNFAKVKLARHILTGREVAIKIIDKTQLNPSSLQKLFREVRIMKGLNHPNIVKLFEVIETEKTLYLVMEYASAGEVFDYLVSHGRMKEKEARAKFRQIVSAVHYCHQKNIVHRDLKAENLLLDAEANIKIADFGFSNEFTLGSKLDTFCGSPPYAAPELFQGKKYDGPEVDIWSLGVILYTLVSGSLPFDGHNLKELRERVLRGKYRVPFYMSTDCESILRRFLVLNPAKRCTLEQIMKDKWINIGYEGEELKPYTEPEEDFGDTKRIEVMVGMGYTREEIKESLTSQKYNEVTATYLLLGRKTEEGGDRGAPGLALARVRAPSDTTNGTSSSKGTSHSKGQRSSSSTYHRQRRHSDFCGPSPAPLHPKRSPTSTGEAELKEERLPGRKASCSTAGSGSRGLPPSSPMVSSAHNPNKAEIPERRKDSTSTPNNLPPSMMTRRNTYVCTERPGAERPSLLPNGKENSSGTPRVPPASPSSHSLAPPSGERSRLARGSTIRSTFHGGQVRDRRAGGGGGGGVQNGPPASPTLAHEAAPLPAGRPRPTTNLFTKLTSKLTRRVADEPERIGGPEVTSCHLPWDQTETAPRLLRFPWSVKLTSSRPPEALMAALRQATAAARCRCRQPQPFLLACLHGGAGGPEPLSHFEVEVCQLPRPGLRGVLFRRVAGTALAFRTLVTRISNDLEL

[6] = biological target: Cyclin-dependent kinase 4 (Homo sapiens, UniProt P11802)
[7] = biological target: Mitogen-activated protein kinase kinase kinase kinase 4 (Homo sapiens, UniProt O95819)
[8] = biological target: T3, NUAK family SNF1-like kinase 2 (Homo sapiens, UniProt Q9H093)
T3 sequence (Q9H093 whole entry): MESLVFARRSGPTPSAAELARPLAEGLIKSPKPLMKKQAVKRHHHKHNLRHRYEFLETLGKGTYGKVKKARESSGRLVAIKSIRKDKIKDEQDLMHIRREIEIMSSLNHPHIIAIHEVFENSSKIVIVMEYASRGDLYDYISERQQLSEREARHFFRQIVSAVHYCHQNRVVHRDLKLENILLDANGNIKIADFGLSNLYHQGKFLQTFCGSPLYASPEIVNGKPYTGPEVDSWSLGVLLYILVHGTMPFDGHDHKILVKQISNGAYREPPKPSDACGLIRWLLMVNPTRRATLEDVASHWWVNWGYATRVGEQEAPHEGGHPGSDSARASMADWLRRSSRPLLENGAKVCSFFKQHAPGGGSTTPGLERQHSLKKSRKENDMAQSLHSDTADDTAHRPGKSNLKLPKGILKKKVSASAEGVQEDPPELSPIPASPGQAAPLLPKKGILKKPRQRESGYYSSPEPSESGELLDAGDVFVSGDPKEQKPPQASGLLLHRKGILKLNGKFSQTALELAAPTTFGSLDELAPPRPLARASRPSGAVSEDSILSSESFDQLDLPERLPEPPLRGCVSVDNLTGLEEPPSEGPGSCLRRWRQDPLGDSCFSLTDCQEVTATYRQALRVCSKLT
Note: in the data inactive means no Kd found up to 30 µM.

Cyclin-dependent kinase 4, sequence (P11802 whole entry): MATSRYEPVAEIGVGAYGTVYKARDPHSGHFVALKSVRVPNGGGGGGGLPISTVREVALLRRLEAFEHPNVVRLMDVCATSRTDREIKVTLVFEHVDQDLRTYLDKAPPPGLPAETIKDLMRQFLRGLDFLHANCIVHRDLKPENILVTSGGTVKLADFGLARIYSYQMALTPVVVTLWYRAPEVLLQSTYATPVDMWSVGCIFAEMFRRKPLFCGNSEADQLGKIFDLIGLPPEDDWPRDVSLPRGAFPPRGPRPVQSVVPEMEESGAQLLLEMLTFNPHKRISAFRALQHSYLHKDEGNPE
Deoxycytidine kinase, sequence (P27707 whole entry): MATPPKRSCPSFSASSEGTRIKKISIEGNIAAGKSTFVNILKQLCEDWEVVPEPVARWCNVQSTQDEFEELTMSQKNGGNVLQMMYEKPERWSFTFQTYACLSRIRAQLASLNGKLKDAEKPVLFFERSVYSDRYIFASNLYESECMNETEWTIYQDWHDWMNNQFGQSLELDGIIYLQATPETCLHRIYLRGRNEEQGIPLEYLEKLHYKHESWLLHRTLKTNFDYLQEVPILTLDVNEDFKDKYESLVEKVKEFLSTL
Serine/threonine-protein kinase/endoribonuclease IRE2, sequence (Q76MJ5 whole entry, canonical isoform): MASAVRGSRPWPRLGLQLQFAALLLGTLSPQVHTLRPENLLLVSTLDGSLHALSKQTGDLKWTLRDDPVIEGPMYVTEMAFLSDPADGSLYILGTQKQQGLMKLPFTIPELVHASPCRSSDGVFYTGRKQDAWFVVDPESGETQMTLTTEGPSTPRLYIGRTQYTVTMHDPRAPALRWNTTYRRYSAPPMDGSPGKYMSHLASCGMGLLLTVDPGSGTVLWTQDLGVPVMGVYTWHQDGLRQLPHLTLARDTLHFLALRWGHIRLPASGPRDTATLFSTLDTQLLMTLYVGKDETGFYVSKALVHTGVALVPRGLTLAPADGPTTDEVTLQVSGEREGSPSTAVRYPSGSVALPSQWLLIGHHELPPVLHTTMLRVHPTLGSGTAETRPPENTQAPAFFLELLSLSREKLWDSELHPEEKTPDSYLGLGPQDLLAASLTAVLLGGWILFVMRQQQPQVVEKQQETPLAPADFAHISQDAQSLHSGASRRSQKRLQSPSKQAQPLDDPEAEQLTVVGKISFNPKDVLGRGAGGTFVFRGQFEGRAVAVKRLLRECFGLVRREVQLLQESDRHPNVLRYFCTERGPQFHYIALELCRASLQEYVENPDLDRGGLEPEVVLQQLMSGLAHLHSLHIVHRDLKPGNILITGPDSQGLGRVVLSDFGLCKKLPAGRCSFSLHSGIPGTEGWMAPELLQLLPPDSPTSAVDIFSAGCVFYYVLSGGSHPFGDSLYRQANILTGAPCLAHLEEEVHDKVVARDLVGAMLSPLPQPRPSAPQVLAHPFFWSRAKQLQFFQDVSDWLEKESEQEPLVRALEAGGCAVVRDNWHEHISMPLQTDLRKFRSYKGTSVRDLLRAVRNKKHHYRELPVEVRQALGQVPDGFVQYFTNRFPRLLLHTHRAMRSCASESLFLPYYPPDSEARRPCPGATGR
Mitogen-activated protein kinase kinase kinase kinase 4, sequence (O95819 whole entry): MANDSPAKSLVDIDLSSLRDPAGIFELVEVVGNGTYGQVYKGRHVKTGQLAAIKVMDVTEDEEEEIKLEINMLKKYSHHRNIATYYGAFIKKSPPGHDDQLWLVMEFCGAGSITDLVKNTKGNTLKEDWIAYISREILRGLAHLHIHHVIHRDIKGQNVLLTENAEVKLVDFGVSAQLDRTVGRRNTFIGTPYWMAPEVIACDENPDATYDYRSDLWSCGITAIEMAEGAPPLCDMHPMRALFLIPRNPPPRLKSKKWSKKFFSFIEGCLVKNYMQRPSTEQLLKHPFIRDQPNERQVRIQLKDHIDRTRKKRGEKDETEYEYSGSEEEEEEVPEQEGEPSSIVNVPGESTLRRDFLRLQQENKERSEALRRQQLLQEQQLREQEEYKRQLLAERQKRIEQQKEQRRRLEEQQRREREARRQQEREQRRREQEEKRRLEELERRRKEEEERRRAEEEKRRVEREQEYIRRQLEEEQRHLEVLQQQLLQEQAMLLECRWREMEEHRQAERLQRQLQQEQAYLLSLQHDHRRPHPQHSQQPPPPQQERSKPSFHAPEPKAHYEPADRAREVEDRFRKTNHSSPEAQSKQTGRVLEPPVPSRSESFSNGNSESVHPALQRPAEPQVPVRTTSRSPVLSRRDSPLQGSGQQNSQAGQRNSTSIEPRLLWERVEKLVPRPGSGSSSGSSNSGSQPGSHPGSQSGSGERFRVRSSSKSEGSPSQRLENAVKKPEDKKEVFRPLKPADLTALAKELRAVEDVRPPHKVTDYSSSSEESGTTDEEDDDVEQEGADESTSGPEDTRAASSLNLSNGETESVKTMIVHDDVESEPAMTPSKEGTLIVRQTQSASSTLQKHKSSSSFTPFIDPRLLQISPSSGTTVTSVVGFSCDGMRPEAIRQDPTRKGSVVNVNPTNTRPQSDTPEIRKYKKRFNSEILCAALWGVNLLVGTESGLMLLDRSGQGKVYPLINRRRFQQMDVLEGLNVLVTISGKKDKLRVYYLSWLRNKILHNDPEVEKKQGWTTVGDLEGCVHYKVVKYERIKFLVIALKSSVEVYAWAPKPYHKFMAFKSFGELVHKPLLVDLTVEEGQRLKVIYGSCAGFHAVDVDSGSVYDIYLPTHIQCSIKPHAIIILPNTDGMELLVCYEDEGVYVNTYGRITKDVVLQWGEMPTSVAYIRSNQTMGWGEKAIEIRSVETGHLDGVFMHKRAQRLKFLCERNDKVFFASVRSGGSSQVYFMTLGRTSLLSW
Casein kinase I isoform alpha, sequence (P48729 whole entry, canonical isoform): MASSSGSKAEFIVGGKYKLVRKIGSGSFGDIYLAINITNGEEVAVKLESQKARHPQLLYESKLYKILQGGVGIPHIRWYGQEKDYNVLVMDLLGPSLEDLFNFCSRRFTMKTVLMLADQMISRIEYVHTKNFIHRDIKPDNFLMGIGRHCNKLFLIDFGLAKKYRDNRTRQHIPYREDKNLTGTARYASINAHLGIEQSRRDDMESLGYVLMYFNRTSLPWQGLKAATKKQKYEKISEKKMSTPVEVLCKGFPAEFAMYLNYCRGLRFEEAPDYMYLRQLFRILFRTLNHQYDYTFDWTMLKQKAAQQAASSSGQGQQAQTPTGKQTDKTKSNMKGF

Structure (SMILES) | Kd [1] | Kd [2] | Kd [3] | Kd [4] | Kd [5] | Kd [6] | Kd [7] | Kd [8]
CCNC(=O)C#Cc1ccc2c(c1)NC(=O)/C2=C(\Nc1ccc(CN(C)C)cc1)c1ccccc1 | > 30 µM (inactive) | > 30 µM (inactive) | > 30 µM (inactive) | > 30 µM (inactive) | > 30 µM (inactive) | > 30 µM (inactive) | > 30 µM (inactive) | 
C=CC(=O)N1CCC[C@H](n2c(=O)n(-c3ccc(Oc4ccccc4)cc3)c3c(N)ncnc32)C1 | > 30 µM (inactive) | > 30 µM (inactive) | > 30 µM (inactive) | > 30 µM (inactive) | > 30 µM (inactive) | > 30 µM (inactive) | > 30 µM (inactive) | > 30 µM (inactive)
COCc1c(-c2ccc(NC(=O)Nc3cc(C(F)(F)F)ccc3F)c(F)c2)c2c(N)ncnn2c1CN1CCOCC1 | > 30 µM (inactive) | > 30 µM (inactive) | > 30 µM (inactive) | > 30 µM (inactive) | > 30 µM (inactive) | > 30 µM (inactive) | > 30 µM (inactive) | > 30 µM (inactive)
Nc1ncnc2c1c(-c1cccc(OCc3ccccc3)c1)cn2[C@H]1C[C@@H](CN2CCC2)C1 [AEW-541] | > 30 µM (inactive) | > 30 µM (inactive) |  | > 30 µM (inactive) | > 30 µM (inactive) | > 30 µM (inactive) | > 30 µM (inactive) | > 30 µM (inactive)
Cc1csc(-c2nnc(Nc3ccc(Oc4ncccc4-c4ccnc(N)n4)cc3)c3ccccc23)c1 [AMG-900] | > 30 µM (inactive) | > 30 µM (inactive) | > 30 µM (inactive) | > 30 µM (inactive) | > 30 µM (inactive) | > 30 µM (inactive) | > 30 µM (inactive) | > 30 µM (inactive)
NC(=O)Nc1cc(-c2cccc(F)c2)sc1C(=O)N[C@H]1CCCNC1 [AZD-7762] | > 30 µM (inactive) | > 30 µM (inactive) | > 30 µM (inactive) | > 30 µM (inactive) | 0.475 µM (active) | > 30 µM (inactive) | 0.035 µM (active) | 
CC(C)(C)c1nc(-c2cccc(NS(=O)(=O)c3c(F)cccc3F)c2F)c(-c2ccnc(N)n2)s1 [DABRAFENIB] | > 30 µM (inactive) | 0.116 µM | > 30 µM (inactive) | > 30 µM (inactive) | > 30 µM (inactive) |  | > 30 µM (inactive) | > 30 µM (inactive)
CNC(=O)c1nn(C)c2c1C(C)(C)Cc1cnc(Nc3ccc(N4CCN(C)CC4)cc3)nc1-2 [MILCICLIB] | > 30 µM (inactive) | > 30 µM (inactive) | 0.995 µM (active) | > 30 µM (inactive) | > 30 µM (inactive) |  | > 30 µM (inactive) | > 30 µM (inactive)
FC(F)(F)c1ccc(/C=C/c2nc(COc3ccc(CCCCn4ccnn4)cc3)co2)cc1 [MUBRITINIB] | > 30 µM (inactive) | > 30 µM (inactive) | > 30 µM (inactive) | > 30 µM (inactive) | > 30 µM (inactive) |  | > 30 µM (inactive) | > 30 µM (inactive)
NC(=O)c1c(OCc2c(F)cc(Br)cc2F)nsc1NC(=O)NCCCCN1CCCC1 [OSI-632] | > 30 µM (inactive) | > 30 µM (inactive) |  | > 30 µM (inactive) | > 30 µM (inactive) | > 30 µM (inactive) |  | > 30 µM (inactive)
CC(=O)NCC(=O)N1[C@@H]2CC[C@H]1c1ccc(Nc3ncc(C(F)(F)F)c(NC4CCC4)n3)cc12 [PF-03814735] | 1.06 µM (active) | > 30 µM (inactive) |  | > 30 µM (inactive) | 0.009 µM (active) | > 30 µM (inactive) |  | 0.024 µM (active)
CNC(=O)c1cc(Oc2ccc(NC(=O)Nc3cc(C(C)(C)C)nn3-c3ccc4ncccc4c3)c(F)c2)ccn1 [REBASTINIB] | > 30 µM (inactive) | > 30 µM (inactive) | > 30 µM (inactive) | > 30 µM (inactive) | > 30 µM (inactive) |  | 2.71 µM (active) | > 30 µM (inactive)
CO[C@H]1C[C@@H]2CC[C@@H](C)[C@@](O)(O2)C(=O)C(=O)N2CCCC[C@H]2C(=O)O[C@H]([C@H](C)C[C@@H]2CC[C@@H](O)[C@H](OC)C2)CC(=O)[C@H](C)/C=C(\C)[C@@H](O)[C@@H](OC)C(=O)[C@H](C)C[C@H](C)/C=C/C=C/C=C/1C [SIROLIMUS] | > 30 µM (inactive) | > 30 µM (inactive) | > 30 µM (inactive) | > 30 µM (inactive) | > 30 µM (inactive) | > 30 µM (inactive) | > 30 µM (inactive) | 
O=C1NC(=O)[C@@H](c2cn3c4c(cccc24)CCC3)[C@@H]1c1c[nH]c2ccccc12 [TIVANTINIB] | > 30 µM (inactive) | > 30 µM (inactive) | > 30 µM (inactive) | > 30 µM (inactive) | > 30 µM (inactive) | > 30 µM (inactive) | > 30 µM (inactive) | 
C[C@@H](NC(=O)c1ncnc(N)c1Cl)c1ncc(C(=O)Nc2cc(C(F)(F)F)c(Cl)cn2)s1 [TOVORAFENIB] | > 30 µM (inactive) | > 30 µM (inactive) | > 30 µM (inactive) | > 30 µM (inactive) | > 30 µM (inactive) | > 30 µM (inactive) | > 30 µM (inactive) | 
Cc1cc(Nc2ncnc3ccc(NC4=NC(C)(C)CO4)cc23)ccc1Oc1ccn2ncnc2c1 [TUCATINIB] | > 30 µM (inactive) | > 30 µM (inactive) |  | > 30 µM (inactive) | > 30 µM (inactive) | > 30 µM (inactive) | > 30 µM (inactive) | > 30 µM (inactive)
C[C@@H](N)c1ccc(C(=O)Nc2ccnc3[nH]ccc23)cc1 [Y-39983] | > 30 µM (inactive) | > 30 µM (inactive) |  | > 30 µM (inactive) | > 30 µM (inactive) | > 30 µM (inactive) | 0.946 µM (active) | > 30 µM (inactive)
